Read-outs that look alike come from different tables or passages of the source.

From patent US11396517B1, “Exo-aza spiro inhibitors of menin-MLL interaction” (Janssen Pharmaceutica NV, priority 2017, dated 2022) come the findings set out here.

Experiment [1] has as its target T1, menin (Homo sapiens, UniProt O00255, T541A).
T1 construct: Menin (a.a. 1-610-6×his tag)
T1 sequence (O00255 with tags, fused parts or gaps T541A): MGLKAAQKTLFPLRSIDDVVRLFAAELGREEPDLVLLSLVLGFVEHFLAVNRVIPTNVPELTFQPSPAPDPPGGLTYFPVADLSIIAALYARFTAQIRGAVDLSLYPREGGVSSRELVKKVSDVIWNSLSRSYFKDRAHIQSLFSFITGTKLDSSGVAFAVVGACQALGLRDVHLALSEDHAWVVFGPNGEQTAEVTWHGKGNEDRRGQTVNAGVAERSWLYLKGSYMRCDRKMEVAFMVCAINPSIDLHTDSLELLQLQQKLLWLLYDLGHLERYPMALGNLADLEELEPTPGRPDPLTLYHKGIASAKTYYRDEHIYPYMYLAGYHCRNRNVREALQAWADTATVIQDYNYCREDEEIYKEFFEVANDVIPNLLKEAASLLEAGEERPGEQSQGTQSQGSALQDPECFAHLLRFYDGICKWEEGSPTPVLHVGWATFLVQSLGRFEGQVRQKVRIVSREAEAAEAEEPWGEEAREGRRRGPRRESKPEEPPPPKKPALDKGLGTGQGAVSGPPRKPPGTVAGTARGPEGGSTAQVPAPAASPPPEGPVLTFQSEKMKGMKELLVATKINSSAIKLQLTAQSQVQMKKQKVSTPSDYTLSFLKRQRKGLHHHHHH
In words: Menin/MLL homogenous time-resolved fluorescence (HTRF) assay. Format: binding. The gist of the method: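 Terbium-labeled menin (aa 1-610, His-tagged; […]) preincubated 5 min with compound, then 75 nM FITC-MBM1 peptide for 15 min, ambient, Tris pH 7.5, 0.5% DMSO. HTRF 520/490 ratio; 11-point 3-fold titration; IC50 from % inhibition fit.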

For experiment [2], the system named is MOLM14. The experiment can be described thus: Proliferation assay B (spheroid assay) MOLM14. Format: cell-based, human. The note with it: MOLM14 cells, confluence at day 8, absolute IC50, read-out: (3b) Spheroid assay MOLM14 (IC50(μM)) Assay B. The method, then:
3b) Proliferation Assay B
The anti-proliferative effect of menin/MLL protein/protein interaction inhibitor test compounds was assessed in human leukemia cell lines. The cell lines MV-4-11 and MOLM14 harbor MILL translocations and express the MILL fusion proteins MLL-AF4 and MLL-AF9, respectively, as well as the wildtype protein from the second allele. […] K562 was used as a control cell line containing two MLL wildtype alleles in order to exclude compounds that display general cytotoxic effects.
MV-4-11 and MOLM14 were cultured in RPMI-1640 (Sigma Aldrich) supplemented with 10% fetal bovine serum (HyClone), 2 mM L-glutamine (Sigma Aldrich) and 50 μg/ml gentamycin (Gibco). K562 were propagated in RPMI-1640 (Sigma Aldrich) supplemented with 20% fetal bovine serum (HyClone), 2 mM L-glutamine (Sigma Aldrich) and 50 μg/ml gentamycin (Gibco).
In order to assess the anti-proliferative effects, 1,500 MV-4-11, 300 MOLM14 cells or 750 K562 cells were seeded in 200 μl media per well in 96-well round bottom, ultra-low attachment plates (Costar, catalogue number 7007). Cell seeding numbers were chosen based on growth curves to ensure linear growth throughout the experiment. Test compounds were added at different concentrations and the DMSO content was normalized to 0.3%. Cells were incubated for 8 d at 37° C. and 5% CO2. Spheroid like growth was measured in real-time by live-cell imaging (IncuCyteZOOM, Essenbio, 4× objective) acquiring images at day 8. Confluence (%) as a measure of spheroid size was determined using an integrated analysis tool.
In order to determine the effect of the test compounds over time, the confluence in each well as a measure of spheroid size, was calculated. Confluence […] at the beginning of the experiment (t=0) was used as baseline for the calculation.
Absolute IC50 values were calculated as percent change in confluence as follows:
LC=Low Control: cells treated with 1 μM of the cytotoxic agent staurosporin
HC=High Control: Mean confluence (%) (DMSO treated cells) % Effect=100−(100*(Sample−LC)/(HC−LC))
To determine the IC50 a curve is fitted to the plot of % Effect vs Log 10 compound concentration using a sigmoidal fit with a variable slope and fixing the maximum to 100% and the minimum to 0%.

[3] abbreviates: location 2, read-out: (2) location 2 Menin HTRF assay (IC50 (nM)).

Consider `CNc1nc(N2CCC3(CC(Nc4ccc5c(c4)oc(=O)n5CCN4CCN(S(C)(=O)=O)CC4)C3)C2)c2cc(CC(F)(F)F)sc2n1` (mixture of isomers) [Compound 250], for which the half-maximal inhibitory concentration (IC50) in experiment [1] (setting [3]) was 146 nM; in experiment [2] (Homo sapiens, MOLM-14, 192 h), greater than 3.75 µM.

`CNC(=O)c1cnc(NC2CC3(CCN(c4ncnc5sc(CC(F)(F)F)cc45)C3)C2)nc1` (mixture of isomers) [Compound 257]: the IC50 is 10.6 nM in experiment [1] (setting [3]) and greater than 3.75 µM in experiment [2] (Homo sapiens, MOLM-14, 192 h).

Consider `CNC(=O)c1ccc(NC2CC3(CCN(c4ncnc5sc(CC(F)(F)F)cc45)C3)C2)cc1` (mixture of isomers) [Compound 329], for which the IC50 in experiment [1] (setting [3]) amounted to 2 nM; in experiment [2], 2.54 µM.

As for `CS(=O)(=O)N1CCC(C#N)(c2ccc(NC3CC4(CCN(c5ncnc6sc(CC(F)(F)F)cc56)C4)C3)cc2)CC1` (mixture of isomers) [Compound 340], the IC50 in experiment [1] (setting [3]) came out at 7.1 nM; in experiment [2] (Homo sapiens, MOLM-14, 192 h) it was 2.47 µM.

Regarding `CS(=O)(=O)c1ccc(NC2CC3(CCN(c4ncnc5sc(CC(F)(F)F)cc45)C3)C2)cc1` (mixture of isomers) [Compound 342], the IC50 was 4.8 nM in experiment [1] (setting [3]) and greater than 3.75 µM in experiment [2] (Homo sapiens, MOLM-14, 192 h).

Regarding `CS(=O)(=O)Nc1ccc(NC2CC3(CCN(c4ncnc5sc(CC(F)(F)F)cc45)C3)C2)cc1` (mixture of isomers) [Compound 343], the IC50 is 4.9 nM in experiment [1] (setting [3]) and greater than 3.75 µM in experiment [2] (Homo sapiens, MOLM-14, 192 h).

As for `CS(=O)(=O)Cc1ccc(NC2CC3(CCN(c4ncnc5sc(CC(F)(F)F)cc45)C3)C2)cc1` (mixture of isomers) [Compound 344], the IC50 in experiment [1] (setting [3]) is 13.4 nM; in experiment [2] (Homo sapiens, MOLM-14, 192 h), greater than 3.75 µM.

Take `O=C1OCCN1c1ccc(NC2CC3(CCN(c4ncnc5sc(CC(F)(F)F)cc45)C3)C2)cc1` (mixture of isomers) [Compound 345]: the IC50 worked out at 6.8 nM in experiment [1] (setting [3]) and 2.33 µM in experiment [2] (Homo sapiens, MOLM-14, 192 h).

With `O=C1NCCN1c1ccc(NC2CC3(CCN(c4ncnc5sc(CC(F)(F)F)cc45)C3)C2)cc1` (mixture of isomers) [Compound 346], the IC50 in experiment [1] (setting [3]) is 7.3 nM; in experiment [2] (Homo sapiens, MOLM-14, 192 h) it was 2.11 µM.

Take `O=C1OCCN1Cc1ccc(NC2CC3(CCN(c4ncnc5sc(CC(F)(F)F)cc45)C3)C2)cc1` (mixture of isomers) [Compound 347]: the concentration for half-maximal inhibition (IC50) in experiment [1] (setting [3]) came to 9.1 nM; in experiment [2] (Homo sapiens, MOLM-14, 192 h), 3.18 µM.

In the case of `NC(=O)Cc1ccc(NC2CC3(CCN(c4ncnc5sc(CC(F)(F)F)cc45)C3)C2)cc1` (mixture of isomers) [Compound 348], the IC50 was 14.5 nM in experiment [1] (setting [3]) and greater than 3.75 µM in experiment [2] (Homo sapiens, MOLM-14, 192 h).

Regarding `CS(=O)(=O)N1CCN(CCn2c(=O)oc3ccc(CNC4CC5(CCN(c6ncnc7sc(CC(F)(F)F)cc67)C5)C4)cc32)CC1` (mixture of isomers) [Compound 349], the IC50 was 19.3 nM in experiment [1] (setting [3]) and greater than 3.75 µM in experiment [2] (Homo sapiens, MOLM-14, 192 h).

Consider `FC(F)(F)Cc1cc2c(N3CCC4(CC(Nc5ccc(CN6CCOCC6)cc5)C4)C3)ncnc2s1` (mixture of isomers) [Compound 350], for which the IC50 in experiment [1] (setting [3]) was determined as 21.1 nM; in experiment [2] (Homo sapiens, MOLM-14, 192 h), 3.55 µM.

For the compound `CS(=O)(=O)N1CCN(Cc2ccc(NC3CC4(CCN(c5ncnc6sc(CC(F)(F)F)cc56)C4)C3)cc2)CC1` (mixture of isomers) [Compound 351], the IC50 was determined as 15.5 nM in experiment [1] (setting [3]) and 3.51 µM in experiment [2] (Homo sapiens, MOLM-14, 192 h).

For `Nc1nc(N2CCC3(CC(Nc4ccc5[nH]c(=O)[nH]c5c4)C3)C2)c2cc(CC(F)(F)F)sc2n1` (mixture of isomers) [Compound 381], the IC50 in experiment [1] (setting [3]) was 9.4 nM; in experiment [2] (Homo sapiens, MOLM-14, 192 h), greater than 3.75 µM.

`CNC(=O)c1ccc(NC2CC3(CCN(c4ncnc5sc(CC(F)(F)F)cc45)C3)C2)c(Cl)c1` (single isomer, unassigned) [Compound 69]: the figures for the IC50 in experiment [1] (setting [3]) and in experiment [2] were 1.7 nM and 0.69 µM, respectively.

In the case of `CN1CCC(c2cc(NC3CC4(CCN(c5ncnc6sc(CC(F)(F)F)cc56)C4)C3)ccc2C#N)CC1` (single isomer, unassigned) [Compound 80], the IC50 in experiment [1] (setting [3]) amounted to 8.7 nM; in experiment [2], 0.95 µM.

As for `COCCNC(=O)c1ccc(NC2CC3(CCN(c4ncnc5sc(CC(F)(F)F)cc45)C3)C2)cc1` (single isomer, unassigned) [Compound 86], the IC50 in experiment [1] (setting [3]) is 91.8 nM; in experiment [2] (Homo sapiens, MOLM-14, 192 h), greater than 3.75 µM.

Turning to `O=C(NCCN1CCOCC1)c1ccc(NC2CC3(CCN(c4ncnc5sc(CC(F)(F)F)cc45)C3)C2)cc1` (single isomer, unassigned) [Compound 88], the IC50 in experiment [1] (setting [3]) came to 3.8 nM; in experiment [2] (Homo sapiens, MOLM-14, 192 h), 0.99 µM.

Consider `Cn1c(=O)[nH]c2cc(NC3CC4(CCN(c5ncnc6sc(CC(F)(F)F)cc56)C4)C3)ccc21` (single isomer, unassigned) [Compound 90], for which the IC50 in experiment [1] (setting [3]) came to 20.2 nM; in experiment [2] (Homo sapiens, MOLM-14, 192 h), 0.85 µM.

Regarding `CS(=O)(=O)N[C@H]1CC[C@H](NC2CC3(CCN(c4ncnc5sc(CC(F)(F)F)cc45)C3)C2)CC1` (single isomer, unassigned) [Compound 103], the IC50 in experiment [1] (location 1, read-out: (2) location 1 Menin HTRF assay (IC50 (nM))) is 1160 nM; in experiment [1] (setting [3]) it was 1200 nM; in experiment [2] (Homo sapiens, MOLM-14, 192 h) it was greater than 3.75 µM.

Turning to `N#Cc1ccc(NC2CC3(CCN(c4ncnc5sc(CC(F)(F)F)cc45)C3)C2)nc1` (single isomer, unassigned) [Compound 175], the IC50 in experiment [1] (setting [3]) worked out at 33.4 nM; in experiment [2] it was 1.09 µM.

For `CS(=O)(=O)N1CCN(C(=O)c2ccc(NC3CC4(CCN(c5ncnc6sc(CC(F)(F)F)cc56)C4)C3)cc2)CC1` (single isomer, unassigned) [Compound 178], the IC50 is 127 nM in experiment [1] (setting [3]) and greater than 3.75 µM in experiment [2] (Homo sapiens, MOLM-14, 192 h).

Take `COC1CCN(C(=O)c2ccc(NC3CC4(CCN(c5ncnc6sc(CC(F)(F)F)cc56)C4)C3)cc2)CC1` (single isomer, unassigned) [Compound 183]: the IC50 in experiment [1] (setting [3]) is 82 nM; in experiment [2] (Homo sapiens, MOLM-14, 192 h), greater than 3.75 µM.

Turning to `O=C(c1ccc(NC2CC3(CCN(c4ncnc5sc(CC(F)(F)F)cc45)C3)C2)cc1)N1CCNCC1` (single isomer, unassigned) [Compound 187], the IC50 in experiment [1] (setting [3]) is 1580 nM; in experiment [2] (Homo sapiens, MOLM-14, 192 h) it was greater than 3.75 µM.

Take `CS(=O)(=O)N1CCN(CCNC(=O)c2ccc(NC3CC4(CCN(c5ncnc6sc(CC(F)(F)F)cc56)C4)C3)cc2)CC1` (single isomer, unassigned) [Compound 189]: the IC50 was 143 nM in experiment [1] (setting [3]) and greater than 3.75 µM in experiment [2] (Homo sapiens, MOLM-14, 192 h).

Regarding `CS(=O)(=O)N1CCN(CCNC(=O)c2ccc(NC3CC4(CCN(c5ncnc6sc(CC(F)(F)F)cc56)C4)C3)cc2)CC1` (single isomer, unassigned) [Compound 190], the IC50 worked out at 9.2 nM in experiment [1] (setting [3]) and 2.1 µM in experiment [2].

Take `CNC(=O)c1ccc(NC2CC3(CCN(c4ncnc5sc(CC(F)(F)F)cc45)C3)C2)cc1F` (single isomer, unassigned) [Compound 205]: the IC50 in experiment [1] (setting [3]) came out at 2.2 nM; in experiment [2] (Homo sapiens, MOLM-14, 192 h), 1.02 µM.

As to `CNC(=O)c1ccc(NC2CC3(CCN(c4ncnc5sc(CC(F)(F)F)cc45)C3)C2)cn1` (single isomer, unassigned) [Compound 217], the results for the IC50 in experiment [1] (setting [3]) and in experiment [2] were 3.7 nM and 1.69 µM, respectively.

Take `CNC(=O)c1ccc(NC2CC3(CCN(c4ncnc5sc(CC(F)(F)F)cc45)C3)C2)cn1` (single isomer, unassigned) [Compound 218]: the IC50 in experiment [1] (setting [3]) was 64.9 nM; in experiment [2], greater than 3.75 µM.
